Target: ENPP1 (hENPP1-ECD-His) (Homo sapiens (Human), UniProt P22413)
Sequence (P22413 98-925): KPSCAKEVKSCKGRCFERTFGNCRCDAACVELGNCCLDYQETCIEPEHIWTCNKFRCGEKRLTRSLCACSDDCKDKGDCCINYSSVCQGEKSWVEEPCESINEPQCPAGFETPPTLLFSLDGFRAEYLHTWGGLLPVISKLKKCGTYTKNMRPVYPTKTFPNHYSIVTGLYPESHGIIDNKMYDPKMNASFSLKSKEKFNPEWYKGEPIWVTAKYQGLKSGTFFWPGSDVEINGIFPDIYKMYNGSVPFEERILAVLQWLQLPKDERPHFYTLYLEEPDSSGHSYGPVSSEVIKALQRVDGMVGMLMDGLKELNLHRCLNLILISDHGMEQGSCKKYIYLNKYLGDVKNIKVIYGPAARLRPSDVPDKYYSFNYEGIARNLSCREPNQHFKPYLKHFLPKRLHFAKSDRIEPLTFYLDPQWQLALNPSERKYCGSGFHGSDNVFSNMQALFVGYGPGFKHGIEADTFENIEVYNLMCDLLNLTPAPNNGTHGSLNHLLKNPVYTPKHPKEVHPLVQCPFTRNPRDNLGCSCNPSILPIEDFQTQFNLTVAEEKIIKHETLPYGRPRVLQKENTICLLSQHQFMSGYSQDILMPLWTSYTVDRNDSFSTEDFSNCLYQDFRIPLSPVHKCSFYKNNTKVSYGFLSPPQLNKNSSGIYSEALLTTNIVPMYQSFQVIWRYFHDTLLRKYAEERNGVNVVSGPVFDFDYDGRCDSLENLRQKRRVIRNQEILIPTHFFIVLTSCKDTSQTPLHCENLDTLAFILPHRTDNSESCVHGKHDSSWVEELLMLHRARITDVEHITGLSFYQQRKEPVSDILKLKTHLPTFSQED

Row | IC50 [nM] | SMILES
1 | 2.62 | COc1ccc2c(Nc3ccc(CC(=O)NO)cc3)ccnc2c1 [Compound 4]
2 | 150 | COc1cccc2c(Oc3ccc(CC(=O)NO)cc3)c(C#N)cnc12 [Compound 5]
3 | 2.17 | COc1ccc2c(Oc3ccc(CC(=O)NO)cc3)ncnc2c1 [Compound 8]
4 | 2.7 | COc1ccc2c(Nc3ccc(CC(=O)NO)cc3)ncnc2c1 [Compound 10]
5 | 28 | COc1cc2ncnc(Oc3ccc(CC(=O)NO)cc3)c2cc1OC [Compound 11]
6 | 1.37 | COc1cc2nccc(Oc3ccc(CC(=O)NO)cc3)c2cc1F [Compound 13]
7 | 1.2 | COc1ccc2c(Oc3ccc(CC(=O)NO)cc3)c(C#N)cnc2c1 [Compound 14]
8 | 19 | Cn1ncc2c(Nc3ccc(CC(=O)NO)cc3)ncnc21 [Compound 15]
9 | 64 | O=C(Cc1ccc(Nc2ncnc3ccccc23)cc1)NO [Compound 16]
10 | 343 | Cn1c(=O)ccc2c(Nc3ccc(CC(=O)NO)cc3)ccnc21 [Compound 18, N-hydroxy-2-(4-((8-methyl-7-oxy-7,8-dihydro-1,8-naphthyridin-4-yl)amino)phenyl)acetamide]
11 | 2.9 | COc1cc2nccc(Oc3ccc(CC(=O)NO)cc3)c2cn1 [Compound 19]
12 | 324 | COc1cnc2c(Oc3ccc(CC(=O)NO)cc3)ccnc2c1 [Compound 20]
13 | 3.1 | COc1ccc2c(Oc3ccc(CC(=O)NO)cc3C)ccnc2n1 [Compound 21]
14 | 1.8 | COc1ccc2c(Nc3ccc(CC(=O)NO)cc3)nc(Cl)nc2c1 [Compound 22]
15 | 36 | Cc1cc(Nc2ncnc3ccccc23)ccc1CC(=O)NO [Compound 24]
16 | 1.9 | COc1ccc2c(Oc3ccc(CC(=O)NO)c(F)c3)ccnc2n1 [Compound 25]
17 | 1.3 | COc1ccc2c(Oc3ccc(CC(=O)NO)cc3F)ccnc2n1 [Compound 26]
18 | 2.1 | COc1ccc2c(Oc3ccc(C(C)C(=O)NO)cc3)ccnc2n1 (stereo not shown) [Compound 27]
19 | 14 | Cn1ncc2c(Oc3ccc(CC(=O)NO)cc3)ccnc21 [Compound 28]
20 | 14 | Cn1ncc2ncnc(Nc3ccc(CC(=O)NO)cc3)c21 [Compound 29]
21 | 20 | O=C(Cc1ccc(Nc2ncnc3nc(O)ccc23)cc1)NO [Compound 31]
22 | 2.4 | CCn1ncc2c(Nc3ccc(CC(=O)NO)cc3)ncnc21 [Compound 33]
23 | 376 | O=C(Cc1ccc(Nc2ncnc3c2cnn3C2CC2)cc1)NO [Compound 34]
24 | 49 | O=C(Cc1ccc(Nc2ncnc3cnccc23)cc1)NO [Compound 35]

Row | IC50 [nM] | SMILES
25 | 24 | CC(C(=O)NO)c1ccc(Oc2ccnc3c2cnn3C)cc1 (stereo not shown) [Compound 36]
26 | 2.4 | COc1ccc2c(Nc3ccc(CC(=O)NO)cc3)nc(C)nc2n1 [Compound 37]
27 | 4.4 | COc1ccc2c(Oc3ccc(C(O)C(=O)NO)cc3)ccnc2n1 (stereo not shown) [Compound 38]
28 | 205 | O=C(Cc1ccc(Nc2ncnc3ncccc23)cc1)NO [Compound 39]
29 | 4.8 | Cn1ncc2c(Nc3ccc(CC(=O)NO)cc3)ccnc21 [Compound 40]
30 | 3 | Cn1ncc2c(Oc3ccc(C(C)(C)C(=O)NO)cc3)ccnc21 [Compound 41]
31 | 2.7 | COc1ccc2c(Nc3ccc(CC(=O)NO)nc3)ccnc2n1 [Compound 44]
32 | 3.1 | COc1ccc2c(Nc3ccc(CC(=O)NO)cn3)ccnc2n1 [Compound 45]
33 | 16 | COc1ccc2c(Oc3cc(F)c(C(C)(C)C(=O)NO)c(F)c3)ccnc2n1 [Compound 46]
34 | 4.5 | COc1ccc2c(Nc3cc(F)c(C(C)C(=O)NO)cc3F)ccnc2n1 (stereo not shown) [Compound 47]
35 | 2.7 | COc1ccc2c(Nc3cc(F)c(C(C)C(=O)NO)c(F)c3)ccnc2n1 (stereo not shown) [Compound 48]
36 | 1.4 | CCn1ncc2c(Nc3ccc(CC(=O)NO)cc3)ccnc21 [Compound 49]
37 | 2.5 | COc1ccc2c(Nc3ccc4c(c3)CCC4C(=O)NO)ccnc2n1 (stereo not shown) [Compound 51]
38 | 2.2 | COc1ccc2c(Nc3cc(F)c(CC(=O)NO)cc3F)ccnc2n1 [Compound 52]
39 | 2.9 | CCn1ncc2c(Oc3ccc(C(C)(C)C(=O)NO)cc3)ccnc21 [Compound 53]
40 | 1.6 | CCn1ncc2c(Oc3ccc(C4(C(=O)NO)CC4)cc3)ccnc21 [Compound 54]
41 | 4.3 | Cc1nn(C)c2nccc(Nc3ccc(CC(=O)NO)cc3)c12 [Compound 55]
42 | 2.3 | CCn1ncc2c(Nc3ccc(CC(=O)NO)c(OC)c3)ccnc21 [Compound 56]
43 | 513 | O=C(Cc1ccc(Nc2ncnc3c2cnn3CC(F)(F)F)cc1)NO [Compound 57]
44 | 41 | Cc1cc(Oc2ccc(C(C)(C)C(=O)NO)cc2)c2cnn(C)c2n1 [Compound 58]
45 | 1.8 | COc1ccc2c(Nc3ccc4c(c3)OCC4C(=O)NO)ccnc2n1 (stereo not shown) [Compound 59]
46 | 673 | Cc1ccc2c(Nc3ccc(CC(=O)NO)cc3)ncnc2n1 [Compound 60]
47 | 1.7 | COc1ccc2c(Nc3ccc(C(C)C(=O)NO)c(F)c3)ccnc2n1 (stereo not shown) [Compound 61]
48 | 1.6 | COc1ccc2c(Nc3c(F)cc(C(C)C(=O)NO)cc3F)ccnc2n1 (stereo not shown) [Compound 62]

Row | IC50 [nM] | SMILES
49 | 212 | COc1ccc2c(Oc3cccc(C(=O)NO)c3)ccnc2n1 [Compound 63]
50 | 1.9 | CCn1ncc2c(Nc3ccc(C(C)C(=O)NO)c(F)c3)ccnc21 (stereo not shown) [Compound 65]
51 | 1.7 | COc1ccc2c(Oc3ccc(C(C)(C)C(=O)NO)cc3)cc(C)nc2n1 [Compound 67]
52 | 1.9 | COc1ccc2c(Nc3ccc(C(C)(C)C(=O)NO)cc3)ccnc2n1 [Compound 69]
53 | 1.7 | COc1ccc2c(Nc3cc(F)c(CC(=O)NO)c(F)c3)ccnc2n1 [Compound 70]
54 | 1.8 | COc1ccc2c(Nc3c(F)cc(CC(=O)NO)cc3F)ccnc2n1 [Compound 71]
55 | 2.2 | COc1ccc2c(Oc3ccc(C(C)C(=O)NO)cc3F)ccnc2n1 (stereo not shown) [Compound 72]
56 | 8.6 | CCn1ncc2c(Oc3ccc(C(C)C(=O)NO)cc3)ccnc21 (stereo not shown) [Compound 73]
57 | 7.8 | CCn1nc(C)c2c(Nc3ccc(CC(=O)NO)cc3)ncnc21 [Compound 74]
58 | 112 | COc1ccc2c(Oc3cccc(CC(=O)NO)c3)ccnc2n1 [Compound 75]
59 | 289 | CCn1ncc2c(Oc3cccc(C(=O)NO)c3)ccnc21 [Compound 76]
60 | 1.2 | CCn1ncc2c(Nc3ccc(CC(=O)NO)c(Cl)c3)ccnc21 [Compound 77]
61 | 1.8 | COc1ccc2c(Nc3ccc(CC(=O)NO)c(Cl)c3)ccnc2n1 [Compound 78]
62 | 1.9 | COc1ccc2c(Nc3ccc(CC(=O)NO)c(OC)c3)ccnc2n1 [Compound 79]
63 | 1.9 | Cn1ncc2c(Oc3ccc(C4(C(=O)NO)CC4)cc3)ccnc21 [Compound 80]
64 | 1.9 | Cn1ncc2c(Nc3ccc(C(C)(C)C(=O)NO)cc3)ccnc21 [Compound 81]
65 | 1.7 | CCn1ncc2c(Nc3ccc(C(C)(C)C(=O)NO)cc3)ccnc21 [Compound 82]
66 | 4.4 | CCn1nc(C)c2c(Nc3ccc(C(C)(C)C(=O)NO)cc3)ncnc21 [Compound 83]
67 | 6.1 | Cc1nn(C)c2nccc(Oc3ccc(C(C)(C)C(=O)NO)cc3)c12 [Compound 84]
68 | 4.8 | COc1ccc2c(Oc3ccc(C(OC)C(=O)NO)cc3)ccnc2n1 (stereo not shown) [Compound 85]
69 | 24 | COc1ccc2c(N[C@H]3CC[C@H](CC(=O)NO)CC3)ccnc2n1 [Compound 89]
70 | 4.5 | COc1ccc2c(Nc3cnn(CC(=O)NO)c3)ccnc2n1 [Compound 90]
71 | 1.2 | CCn1ncc2c(Nc3ccc(C(C)(C)C(=O)NO)cc3)ncnc21 [Compound 91]
72 | 169 | COc1ccc2c(Oc3ccc4c(C(=O)NO)cccc4c3)ccnc2n1 [Compound 92]

Row | IC50 [nM] | SMILES
73 | 257 | CC(C)(C(=O)NO)c1ccc(Oc2ccnc3cc(Cl)ccc23)cc1 [Compound 94]
74 | 6.8 | COc1ccc2c(Nc3ccc(CC(=O)NO)c4ccccc34)ccnc2n1 [Compound 96]
75 | 1.5 | COc1cc2nccc(Oc3ccc(C(C)(C)C(=O)NO)cc3)c2cn1 [Compound 97]
76 | 125 | CCOc1ccc2c(Oc3ccc(CC(=O)NO)cc3)ccnc2c1 [Compound 98]
77 | 63 | COc1ccc2nccc(Oc3ccc(C(C)(C)C(=O)NO)cc3)c2c1 [Compound 99]
78 | 1.1 | COc1ccc2c(Nc3ccc(C(C)(C)C(=O)NO)cn3)ccnc2n1 [Compound 101]
79 | 21 | COc1ccc2c(Oc3ccc(C(C)(C)C(=O)NO)c(Cl)c3)ccnc2n1 [Compound 103]
80 | 2.3 | COc1ccc2c(Oc3ccc(C(C)(C)C(=O)NO)c(C)c3)ccnc2n1 [Compound 109]
81 | 2.5 | COc1ccc2c(Oc3cc(F)c(C(C)(C)C(=O)NO)cc3F)ccnc2n1 [Compound 112]
82 | 219 | COc1ccc2c(C(C)c3ccc(C(C)(C)C(=O)NO)cc3)ccnc2n1 (stereo not shown) [Compound 113]
83 | 162 | COc1ccc2c(N(C)c3ccc(C(C)(C)C(=O)NO)cc3)ccnc2n1 [Compound 114]
84 | 21 | COc1ccc2c(OC3CCN(C(C)(C)C(=O)NO)CC3)ccnc2n1 [Compound 116]
85 | 2.1 | COc1ccc2c(NC3CCN(C(C)(C)C(=O)NO)CC3)ccnc2n1 [Compound 117]
86 | 1.5 | COc1ccc2c(Nc3cnn(C(C)(C)C(=O)NO)c3)ccnc2n1 [Compound 118]
87 | 1.2 | COc1cc2nccc(Oc3ccc(C4(C(=O)NO)CCCC4)cc3)c2cn1 [Compound 123]
88 | 1.6 | CCC(CC)(C(=O)NO)c1ccc(Oc2ccnc3nc(OC)ccc23)cc1 [Compound 124]
89 | 21 | COc1cc(Nc2ncnc3c2cnn3C)ccc1C(C)(C)C(=O)NO [Compound 126]
90 | 1.6 | COc1ccc2c(Nc3ccc(C(C)(C)C(=O)NO)nc3)ccnc2n1 [Compound 127]
91 | 5.7 | Cn1ncc2c(Oc3ccc(C4(C(=O)NO)CCCC4)cc3)ccnc21 [Compound 129]
92 | 6.6 | COc1ccc2c(Oc3ccc(C(CC(C)C)C(=O)NO)cc3)ccnc2n1 (stereo not shown) [Compound 132]
93 | 3.3 | COc1ccc2c(Oc3cc(F)c(C4(C(=O)NO)CCOCC4)cc3F)ccnc2n1 [Compound 134]
94 | 7.1 | COc1ccc2c(Oc3ccc(C4(C(=O)NO)CCOCC4)c(Cl)c3)ccnc2n1 [Compound 135]
